{"source": "ChEMBL document CHEMBL3132827", "about": "“Quinazoline and tetrahydropyridothieno[2,3-d]pyrimidine derivatives as irreversible EGFR tyrosine kinase inhibitors: influence of the position 4 substituent” (Medchemcomm, 2013)", "key": {"[1]": {"assay": "Cytotoxicity against human SKBR3 cells expressing wild type EGFR assessed as growth inhibition incubated for 1 hr prior to EGF challenge measured after 72 hrs by luciferase reporter gene assay", "assay_type": "functional, cell-based", "settings": "SK-BR-3"}, "[2]": {"target": "Epidermal growth factor receptor (Homo sapiens, UniProt P00533)", "sequence (P00533 whole entry)": "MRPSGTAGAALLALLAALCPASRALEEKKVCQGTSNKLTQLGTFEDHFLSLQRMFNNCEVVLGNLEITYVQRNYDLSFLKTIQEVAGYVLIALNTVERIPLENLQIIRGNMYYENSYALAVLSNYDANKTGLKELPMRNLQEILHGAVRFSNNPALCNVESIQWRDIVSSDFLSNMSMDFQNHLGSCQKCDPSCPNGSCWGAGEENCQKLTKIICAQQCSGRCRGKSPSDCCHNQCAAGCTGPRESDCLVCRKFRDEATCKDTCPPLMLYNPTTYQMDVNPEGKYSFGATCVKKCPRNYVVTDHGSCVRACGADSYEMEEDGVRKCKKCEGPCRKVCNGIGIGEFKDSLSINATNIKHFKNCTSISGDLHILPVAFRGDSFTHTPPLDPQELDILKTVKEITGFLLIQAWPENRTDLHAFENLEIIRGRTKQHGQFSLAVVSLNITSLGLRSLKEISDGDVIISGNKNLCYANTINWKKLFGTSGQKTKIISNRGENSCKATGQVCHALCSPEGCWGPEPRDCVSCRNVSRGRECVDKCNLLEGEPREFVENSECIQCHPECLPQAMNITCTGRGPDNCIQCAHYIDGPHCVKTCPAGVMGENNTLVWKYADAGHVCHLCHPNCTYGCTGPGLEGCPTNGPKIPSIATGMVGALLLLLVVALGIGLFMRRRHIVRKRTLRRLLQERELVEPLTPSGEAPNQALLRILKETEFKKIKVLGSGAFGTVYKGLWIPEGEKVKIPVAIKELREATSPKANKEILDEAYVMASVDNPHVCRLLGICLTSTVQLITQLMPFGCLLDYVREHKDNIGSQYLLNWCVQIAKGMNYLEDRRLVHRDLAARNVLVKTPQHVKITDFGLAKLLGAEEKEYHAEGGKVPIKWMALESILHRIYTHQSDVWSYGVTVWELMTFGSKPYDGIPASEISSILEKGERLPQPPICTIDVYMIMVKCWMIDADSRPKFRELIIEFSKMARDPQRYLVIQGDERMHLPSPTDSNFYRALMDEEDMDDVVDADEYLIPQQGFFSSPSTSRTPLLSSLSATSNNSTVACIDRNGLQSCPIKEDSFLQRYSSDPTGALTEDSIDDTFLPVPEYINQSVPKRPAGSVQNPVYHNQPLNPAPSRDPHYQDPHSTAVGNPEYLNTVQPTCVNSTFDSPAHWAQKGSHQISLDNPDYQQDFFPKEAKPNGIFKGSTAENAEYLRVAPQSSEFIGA", "assay": "Inhibition of recombinant wild type EGFR kinase(unknown origin) after 30 mins in presence of [gamma32P]ATP"}, "NCI-H1975": {"system": "NCI-H1975", "assay": "cells", "assay_type": "functional, cell-based", "settings": "Homo sapiens"}, "[3]": {"target": "Epidermal growth factor receptor (Homo sapiens, UniProt P00533, L858R/T790M)", "sequence (P00533 25-1210 T790M/L858R limits assumed)": "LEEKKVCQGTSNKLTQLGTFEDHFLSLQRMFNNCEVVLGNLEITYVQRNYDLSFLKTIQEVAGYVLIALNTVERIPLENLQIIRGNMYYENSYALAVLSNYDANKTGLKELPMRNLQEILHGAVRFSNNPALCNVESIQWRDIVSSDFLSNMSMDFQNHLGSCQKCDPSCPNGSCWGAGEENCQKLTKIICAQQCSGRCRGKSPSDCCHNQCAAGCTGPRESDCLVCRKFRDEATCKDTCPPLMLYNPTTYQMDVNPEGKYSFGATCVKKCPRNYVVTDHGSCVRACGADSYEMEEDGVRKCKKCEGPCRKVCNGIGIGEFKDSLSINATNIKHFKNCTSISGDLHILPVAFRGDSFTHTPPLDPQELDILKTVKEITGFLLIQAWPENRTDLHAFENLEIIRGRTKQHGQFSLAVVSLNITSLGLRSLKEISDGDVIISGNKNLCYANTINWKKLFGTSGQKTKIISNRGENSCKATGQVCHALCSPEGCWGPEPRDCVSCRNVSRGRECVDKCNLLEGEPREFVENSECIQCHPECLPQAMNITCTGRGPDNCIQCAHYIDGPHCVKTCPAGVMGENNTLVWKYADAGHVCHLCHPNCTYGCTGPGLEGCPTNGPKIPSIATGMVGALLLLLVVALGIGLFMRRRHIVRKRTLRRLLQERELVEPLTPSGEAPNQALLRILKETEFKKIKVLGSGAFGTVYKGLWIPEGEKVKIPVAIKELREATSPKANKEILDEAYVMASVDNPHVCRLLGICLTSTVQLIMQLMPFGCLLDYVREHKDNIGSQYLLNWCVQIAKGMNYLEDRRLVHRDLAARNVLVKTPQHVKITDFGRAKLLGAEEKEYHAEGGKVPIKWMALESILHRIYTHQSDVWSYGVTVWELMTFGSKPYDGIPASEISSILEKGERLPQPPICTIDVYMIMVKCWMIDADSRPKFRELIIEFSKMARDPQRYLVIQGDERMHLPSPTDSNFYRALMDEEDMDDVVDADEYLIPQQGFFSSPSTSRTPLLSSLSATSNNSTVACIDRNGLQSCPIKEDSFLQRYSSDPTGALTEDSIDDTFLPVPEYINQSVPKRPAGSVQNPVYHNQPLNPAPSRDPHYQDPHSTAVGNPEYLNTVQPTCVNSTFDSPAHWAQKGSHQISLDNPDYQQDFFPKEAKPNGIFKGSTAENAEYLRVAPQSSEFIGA", "assay_type": "cell-based, NCI-H1975"}}, "data": [{"smiles": "C=CC(=O)Nc1ccc2ncnc(Nc3ccc(S(N)(=O)=O)cc3)c2c1", "values": [{"measurement": "IC50", "setting": "[1]", "result": 2500, "unit": "nM"}, {"measurement": "IC50", "setting": "[2]", "result": 76.5, "unit": "nM"}, {"measurement": "IC50", "setting": "NCI-H1975", "result": "> 40000", "unit": "nM"}]}, {"smiles": "C=CC(=O)Nc1ccc2ncnc(Nc3cccc(C)c3F)c2c1", "values": [{"measurement": "IC50", "setting": "[1]", "result": 1860, "unit": "nM"}, {"measurement": "IC50", "setting": "[3]", "result": 111000, "unit": "nM"}, {"measurement": "IC50", "setting": "[2]", "result": 1.5, "unit": "nM"}, {"measurement": "IC50", "setting": "NCI-H1975", "result": 390, "unit": "nM"}]}, {"smiles": "C=CC(=O)N1CCc2c(sc3ncnc(NC4CCCCC4)c23)C1", "values": [{"measurement": "IC50", "setting": "[1]", "result": "> 40000", "unit": "nM"}, {"measurement": "IC50", "setting": "[3]", "result": "> 5000", "unit": "nM"}, {"measurement": "IC50", "setting": "[2]", "result": "> 150", "unit": "nM"}, {"measurement": "IC50", "setting": "NCI-H1975", "result": "> 40000", "unit": "nM"}]}, {"smiles": "C=CC(=O)N1CCc2c(sc3ncnc(Nc4cccc(C)c4F)c23)C1", "values": [{"measurement": "IC50", "setting": "[1]", "result": 1400, "unit": "nM"}, {"measurement": "IC50", "setting": "[3]", "result": 280, "unit": "nM"}, {"measurement": "IC50", "setting": "[2]", "result": 3.95, "unit": "nM"}, {"measurement": "IC50", "setting": "NCI-H1975", "result": 33800, "unit": "nM"}]}, {"smiles": "C=CC(=O)Nc1ccc2ncnc(Nc3ccc(S(=O)(=O)Nc4nccs4)cc3)c2c1", "values": [{"measurement": "IC50", "setting": "[1]", "result": 4000, "unit": "nM"}, {"measurement": "IC50", "setting": "[2]", "result": 43.7, "unit": "nM"}, {"measurement": "IC50", "setting": "NCI-H1975", "result": "> 40000", "unit": "nM"}]}, {"smiles": "C=CC(=O)Nc1ccc2ncnc(Nc3cccc(CC)c3)c2c1", "values": [{"measurement": "IC50", "setting": "[1]", "result": 2820, "unit": "nM"}, {"measurement": "IC50", "setting": "[3]", "result": 275, "unit": "nM"}, {"measurement": "IC50", "setting": "[2]", "result": 2.7, "unit": "nM"}, {"measurement": "IC50", "setting": "NCI-H1975", "result": 680, "unit": "nM"}]}, {"smiles": "C=CC(=O)Nc1ccc2ncnc(Nc3c(F)cccc3Br)c2c1", "values": [{"measurement": "IC50", "setting": "[1]", "result": 230, "unit": "nM"}, {"measurement": "IC50", "setting": "[2]", "result": 2.2, "unit": "nM"}, {"measurement": "IC50", "setting": "NCI-H1975", "result": 260, "unit": "nM"}]}, {"smiles": "C=CC(=O)Nc1ccc2ncnc(Nc3cccc(Br)c3)c2c1", "values": [{"measurement": "IC50", "setting": "[1]", "result": 200, "unit": "nM"}, {"measurement": "IC50", "setting": "NCI-H1975", "result": 440, "unit": "nM"}]}, {"smiles": "C=CC(=O)Nc1ccc2ncnc(Nc3ccc(Br)cc3F)c2c1", "values": [{"measurement": "IC50", "setting": "[1]", "result": 510, "unit": "nM"}, {"measurement": "IC50", "setting": "[3]", "result": 36, "unit": "nM"}, {"measurement": "IC50", "setting": "[2]", "result": 2.1, "unit": "nM"}, {"measurement": "IC50", "setting": "NCI-H1975", "result": 280, "unit": "nM"}]}, {"smiles": "C=CC(=O)Nc1ccc2ncnc(Nc3ccc(OC)cc3OC)c2c1", "values": [{"measurement": "IC50", "setting": "[1]", "result": 6890, "unit": "nM"}, {"measurement": "IC50", "setting": "NCI-H1975", "result": 13900, "unit": "nM"}]}, {"smiles": "C=CC(=O)N1CCc2c(sc3ncnc(Nc4ccc(Br)c(C)c4)c23)C1", "values": [{"measurement": "IC50", "setting": "[1]", "result": "> 40000", "unit": "nM"}, {"measurement": "IC50", "setting": "[2]", "result": 4.4, "unit": "nM"}, {"measurement": "IC50", "setting": "NCI-H1975", "result": "> 40000", "unit": "nM"}]}, {"smiles": "C=CC(=O)N1CCc2c(sc3ncnc(Nc4cccc(CC)c4)c23)C1", "values": [{"measurement": "IC50", "setting": "[1]", "result": 3200, "unit": "nM"}, {"measurement": "IC50", "setting": "[2]", "result": 8.73, "unit": "nM"}, {"measurement": "IC50", "setting": "NCI-H1975", "result": 23800, "unit": "nM"}]}, {"smiles": "C=CC(=O)Nc1ccc2ncnc(Nc3ccc(S(=O)(=O)NC(=N)N)cc3)c2c1", "values": [{"measurement": "IC50", "setting": "[1]", "result": "> 40000", "unit": "nM"}, {"measurement": "IC50", "setting": "[2]", "result": 53.3, "unit": "nM"}, {"measurement": "IC50", "setting": "NCI-H1975", "result": "> 40000", "unit": "nM"}]}, {"smiles": "C=CC(=O)Nc1ccc2ncnc(NC3CCCCC3)c2c1", "values": [{"measurement": "IC50", "setting": "[1]", "result": 400, "unit": "nM"}, {"measurement": "IC50", "setting": "[3]", "result": 2800, "unit": "nM"}, {"measurement": "IC50", "setting": "[2]", "result": 3.4, "unit": "nM"}, {"measurement": "IC50", "setting": "NCI-H1975", "result": "> 40000", "unit": "nM"}]}, {"smiles": "C=CC(=O)Nc1ccc2ncnc(Nc3ccc(Br)cc3C)c2c1", "values": [{"measurement": "IC50", "setting": "[1]", "result": 630, "unit": "nM"}, {"measurement": "IC50", "setting": "[2]", "result": 2.2, "unit": "nM"}, {"measurement": "IC50", "setting": "NCI-H1975", "result": 1860, "unit": "nM"}]}, {"smiles": "C=CC(=O)Nc1ccc2ncnc(Nc3ccccc3CC)c2c1", "values": [{"measurement": "IC50", "setting": "[1]", "result": 7700, "unit": "nM"}, {"measurement": "IC50", "setting": "[3]", "result": 2000, "unit": "nM"}, {"measurement": "IC50", "setting": "[2]", "result": 18.9, "unit": "nM"}, {"measurement": "IC50", "setting": "NCI-H1975", "result": 16000, "unit": "nM"}]}, {"smiles": "C=CC(=O)Nc1ccc2ncnc(Nc3ccc(CC)cc3)c2c1", "values": [{"measurement": "IC50", "setting": "[1]", "result": 1140, "unit": "nM"}, {"measurement": "IC50", "setting": "[2]", "result": 3.2, "unit": "nM"}, {"measurement": "IC50", "setting": "NCI-H1975", "result": 15700, "unit": "nM"}]}, {"smiles": "C=CC(=O)Nc1ccc2ncnc(Nc3ccc(Br)c(OC)c3)c2c1", "values": [{"measurement": "IC50", "setting": "[1]", "result": 360, "unit": "nM"}, {"measurement": "IC50", "setting": "[2]", "result": 2.5, "unit": "nM"}, {"measurement": "IC50", "setting": "NCI-H1975", "result": 400, "unit": "nM"}]}, {"smiles": "C=CC(=O)Nc1ccc2ncnc(Nc3ccc(Br)c(C)c3)c2c1", "values": [{"measurement": "IC50", "setting": "[1]", "result": 1420, "unit": "nM"}, {"measurement": "IC50", "setting": "[2]", "result": 2.3, "unit": "nM"}, {"measurement": "IC50", "setting": "NCI-H1975", "result": 1820, "unit": "nM"}]}, {"smiles": "C=CC(=O)N1CCc2c(sc3ncnc(Nc4ccc(CC)cc4)c23)C1", "values": [{"measurement": "IC50", "setting": "[1]", "result": 6200, "unit": "nM"}, {"measurement": "IC50", "setting": "[3]", "result": 130, "unit": "nM"}, {"measurement": "IC50", "setting": "[2]", "result": 7.38, "unit": "nM"}, {"measurement": "IC50", "setting": "NCI-H1975", "result": 15200, "unit": "nM"}]}, {"smiles": "C=CC(=O)N1CCc2c(sc3ncnc(Nc4ccc(Br)cc4F)c23)C1", "values": [{"measurement": "IC50", "setting": "[1]", "result": 2300, "unit": "nM"}, {"measurement": "IC50", "setting": "[2]", "result": 3.71, "unit": "nM"}, {"measurement": "IC50", "setting": "NCI-H1975", "result": "> 40000", "unit": "nM"}]}, {"smiles": "C=CC(=O)Nc1ccc2ncnc(Nc3ccc(S(=O)(=O)Nc4ccccn4)cc3)c2c1", "values": [{"measurement": "IC50", "setting": "[1]", "result": 390, "unit": "nM"}, {"measurement": "IC50", "setting": "[3]", "result": 4390, "unit": "nM"}, {"measurement": "IC50", "setting": "[2]", "result": 9.8, "unit": "nM"}, {"measurement": "IC50", "setting": "NCI-H1975", "result": "> 40000", "unit": "nM"}]}]}
